Measured values taken from patent US20250230193A1, “CYCLIC COMPOUND HAVING SELECTIVE KRAS INHIBITORY EFFECT ON HRAS AND NRAS” (CHUGAI SEIYAKU KABUSHIKI KAISHA, priority 2022, published 2025).

Tests used:
[1] = target: GDP-bound HRAS wild-type protein (Homo sapiens, UniProt P01112); experiment: Binding to HRAS by surface plasmon resonance (SPR), Single Cycle Kinetics; conditions: KD ratio HRAS/KRAS
[2] = target: GDP-bound NRAS wild-type protein (Homo sapiens, UniProt P01111); experiment: Binding to NRAS by surface plasmon resonance (SPR), Single Cycle Kinetics; conditions: KD ratio NRAS/KRAS
[3] = SPR, GDP-bound wild-type proteins

GDP-bound HRAS wild-type protein, sequence (P01112 whole entry): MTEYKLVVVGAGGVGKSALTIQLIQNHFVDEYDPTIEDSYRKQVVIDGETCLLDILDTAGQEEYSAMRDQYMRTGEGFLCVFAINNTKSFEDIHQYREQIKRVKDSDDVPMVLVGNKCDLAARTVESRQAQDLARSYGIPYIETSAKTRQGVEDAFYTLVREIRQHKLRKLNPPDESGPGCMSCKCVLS
GDP-bound NRAS wild-type protein, sequence (P01111 whole entry): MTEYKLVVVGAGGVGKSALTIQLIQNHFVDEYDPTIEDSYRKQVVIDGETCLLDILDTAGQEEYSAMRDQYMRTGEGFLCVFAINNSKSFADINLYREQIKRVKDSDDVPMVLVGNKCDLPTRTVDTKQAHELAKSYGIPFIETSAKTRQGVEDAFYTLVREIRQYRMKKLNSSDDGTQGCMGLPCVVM

Row | SMILES | HRAS/KRAS (ratio of KD value with respect to GDP-bound HRAS wild-type protein to KD value with respect to KRAS) ([1]; class symbols) | NRAS/KRAS (ratio of KD value with respect to GDP-bound NRAS wild-type protein to KD value with respect to KRAS) ([2]; class symbols) | HRAS/KRAS (ratio of KD value with respect to GDP-bound HRAS wild-type protein to KD value with respect to KRAS) [1, 3] | NRAS/KRAS (ratio of KD value with respect to GDP-bound NRAS wild-type protein to KD value with respect to KRAS) [2, 3]
1 | CCC(CC)[C@H]1C(=O)N(C)[C@H](C(=O)N(C)C)CC(=O)N(C)[C@@H](COC)C(=O)N[C@@H]([C@@H](C)CC)C(=O)N(C)CC(=O)N(C)[C@H]2C/C=C\CCN(C2=O)[C@@H](Cc2ccc(C(F)(F)F)cc2)C(=O)N(C)CC(=O)N[C@@H](CCc2cc(F)c(C(F)(F)F)c(F)c2)C(=O)N2CC3(CC3)C[C@H]2C(=O)NC2(CC(C)(C)C2)C(=O)N1C [PP2961] | A (a compound having 10 or more and less than 20 is denoted as A) | AA (a compound having 20 or more is denoted as AA) |  | 
2 | CCC[C@H]1C(=O)N[C@@H]([C@@H](C)CC)C(=O)N(C)CC(=O)N(C)[C@H]2C/C=C\CCN(C2=O)[C@@H](Cc2ccc(C)cc2)C(=O)N(C)CC(=O)N[C@@H](CCc2ccc(Cl)c(Cl)c2)C(=O)N2CCCCC[C@H]2C(=O)NC2(CC(C)(C)C2)C(=O)N(C)[C@@H](C(CC)CC)C(=O)N(C)[C@H](C(=O)N(C)C)CC(=O)N1C [PP2962] | A (a compound having 10 or more and less than 20 is denoted as A) | AA (a compound having 20 or more is denoted as AA) |  | 
3 | CCC(CC)[C@H]1C(=O)N(C)[C@H](C(=O)N(C)C)CC(=O)N(C)[C@@H](COC)C(=O)N[C@@H]([C@@H](C)CC)C(=O)N(C)CC(=O)N(C)[C@H]2C/C=C\CCN(C2=O)[C@@H](Cc2ccc(C)cc2)C(=O)N(C)CC(=O)N[C@@H](CCc2cc(F)c(C(F)(F)F)c(F)c2)C(=O)N2CC3(CC3)C[C@H]2C(=O)NC2(CC(C)(C)C2)C(=O)N1C [PP2963] | A (a compound having 10 or more and less than 20 is denoted as A) | AA (a compound having 20 or more is denoted as AA) |  | 
4 | CCC[C@H]1C(=O)N[C@@H]([C@@H](C)CC)C(=O)N(C)CC(=O)N(C)[C@H]2C/C=C\CCN(C2=O)[C@@H](Cc2ccc(C(F)(F)F)cc2)C(=O)N(C)CC(=O)N[C@@H](CCc2ccc(C(F)(F)F)c(Cl)c2)C(=O)N2CCCCC[C@H]2C(=O)NC2(CC(C)(C)C2)C(=O)N(C)[C@@H](C(CC)CC)C(=O)N(C)[C@H](C(=O)N(C)C)CC(=O)N1C [PP2964] | A (a compound having 10 or more and less than 20 is denoted as A) | AA (a compound having 20 or more is denoted as AA) |  | 
5 | CCC(CC)[C@H]1C(=O)N(C)[C@H](C(=O)N(C)C)CC(=O)N(C)[C@@H](COC)C(=O)N[C@@H]([C@@H](C)CC)C(=O)N(C)CC(=O)N(C)[C@H]2C/C=C\CCN(C2=O)[C@@H](Cc2ccc(C(F)(F)F)cc2)C(=O)N(C)CC(=O)N[C@@H](CCc2ccc(C(F)(F)F)c(Cl)c2)C(=O)N2CC3(CC3)C[C@H]2C(=O)NC2(CC(C)(C)C2)C(=O)N1C [PP2965] | A (a compound having 10 or more and less than 20 is denoted as A) | AA (a compound having 20 or more is denoted as AA) |  | 
6 | CCC(CC)[C@H]1C(=O)N(C)[C@H](C(=O)N(C)C)CC(=O)N(C)[C@@H](COC)C(=O)N[C@@H]([C@@H](C)CC)C(=O)N(C)CC(=O)N(C)[C@H]2C/C=C\CCN(C2=O)[C@@H](Cc2ccc(C)cc2)C(=O)N(C)CC(=O)N[C@@H](CCc2ccc(C(F)(F)F)c(Cl)c2)C(=O)N2CCCCC[C@H]2C(=O)NC2(CC(C)(C)C2)C(=O)N1C [PP2966] | A (a compound having 10 or more and less than 20 is denoted as A) | A (a compound having 10 or more and less than 20 is denoted as A) |  | 
7 | CCC(CC)[C@H]1C(=O)N(C)[C@H](C(=O)N(C)C)CC(=O)N(C)[C@@H](COC)C(=O)N[C@@H]([C@@H](C)CC)C(=O)N(C)CC(=O)N(C)[C@H]2C/C=C\CCN(C2=O)[C@@H](Cc2ccc(C)cc2)C(=O)N(C)CC(=O)N[C@@H](CCc2ccc(C(F)(F)F)c(Cl)c2)C(=O)N2CC3(CC3)C[C@H]2C(=O)NC2(CC(C)(C)C2)C(=O)N1C [PP2967] | A (a compound having 10 or more and less than 20 is denoted as A) | AA (a compound having 20 or more is denoted as AA) |  | 
8 | CCC[C@H]1C(=O)N[C@@H]([C@@H](C)CC)C(=O)N(C)CC(=O)N(C)[C@H]2C/C=C\CCN(C2=O)[C@@H](Cc2ccc(C(F)(F)F)cc2)C(=O)N(C)CC(=O)N[C@@H](CCc2ccc(C(F)(F)F)c(OC)c2)C(=O)N2CCCCC[C@H]2C(=O)NC2(CC(C)(C)C2)C(=O)N(C)[C@@H](C(CC)CC)C(=O)N(C)[C@H](C(=O)N(C)C)CC(=O)N1C [PP2968] | A (a compound having 10 or more and less than 20 is denoted as A) | AA (a compound having 20 or more is denoted as AA) |  | 
9 | CCC[C@H]1C(=O)N[C@@H]([C@@H](C)CC)C(=O)N(C)CC(=O)N(C)[C@H]2C/C=C\CCN(C2=O)[C@@H](Cc2ccc(C(F)(F)F)cc2)C(=O)N(C)CC(=O)N[C@@H](CCc2ccc(C(F)(F)F)c(Cl)c2)C(=O)N2C[C@H](OCC)C[C@H]2C(=O)NC2(CC(C)(C)C2)C(=O)N(C)[C@@H](CC(C)(C)C)C(=O)N(C)[C@H](C(=O)N(C)C)CC(=O)N1C [PP2969] | A (a compound having 10 or more and less than 20 is denoted as A) | AA (a compound having 20 or more is denoted as AA) |  | 
10 | CCC(CC)[C@H]1C(=O)N(C)[C@H](C(=O)N(C)C)CC(=O)N(C)[C@@H](COC)C(=O)N[C@@H]([C@@H](C)CC)C(=O)N(C)CC(=O)N(C)[C@H]2C/C=C\CCN(C2=O)[C@@H](Cc2ccc(C)cc2)C(=O)N(C)CC(=O)N[C@@H](CCc2ccc(C(F)(F)F)c(OC)c2)C(=O)N2CCCCC[C@H]2C(=O)NC2(CC(C)(C)C2)C(=O)N1C [PP2970] | A (a compound having 10 or more and less than 20 is denoted as A) | A (a compound having 10 or more and less than 20 is denoted as A) |  | 
11 | CCC[C@H]1C(=O)N[C@@H](C2CCCC2)C(=O)N(C)CC(=O)N(C)[C@H]2C/C=C\CCN(C2=O)[C@@H](Cc2ccc(C(F)(F)F)cc2)C(=O)N(C)CC(=O)N[C@@H](CCc2ccc(C(F)(F)F)c(Cl)c2)C(=O)N2C[C@H](OCC)C[C@H]2C(=O)NC2(CC(C)(C)C2)C(=O)N(C)[C@@H](CC(C)(C)C)C(=O)N(C)[C@H](C(=O)N(C)C)CC(=O)N1C [PP2971] |  |  | A (a compound having 10 or more and less than 20 is denoted as A) | A (a compound having 10 or more and less than 20 is denoted as A)
12 | CCC[C@H]1C(=O)N[C@@H]([C@@H](C)CC)C(=O)N(C)CC(=O)N(C)[C@H]2C/C=C\CCN(C2=O)[C@@H](Cc2ccc(C(F)(F)F)cc2)C(=O)N(C)CC(=O)N[C@@H](CCc2ccc(C(F)(F)F)c(Cl)c2)C(=O)N2C[C@H](OCC)C[C@H]2C(=O)NC2(CC(C)(C)C2)C(=O)N(C)[C@@H]([C@@H](C)CC)C(=O)N(C)[C@H](C(=O)N(C)C)CC(=O)N1C [PP2973] |  |  | A (a compound having 10 or more and less than 20 is denoted as A) | A (a compound having 10 or more and less than 20 is denoted as A)
13 | CCC(CC)[C@H]1C(=O)N(C)[C@H](C(=O)N(C)C)CC(=O)N(C)[C@@H](COC)C(=O)N[C@@H]([C@@H](C)CC)C(=O)N(C)CC(=O)N(C)[C@H]2C/C=C\CCN(C2=O)[C@@H](Cc2ccc(C)cc2)C(=O)N(C)CC(=O)N[C@@H](CCc2ccc(Cl)c(Cl)c2)C(=O)N2CCCCC[C@H]2C(=O)NC2(CC(C)(C)C2)C(=O)N1C [PP2974] |  |  | A (a compound having 10 or more and less than 20 is denoted as A) | A (a compound having 10 or more and less than 20 is denoted as A)
14 | CCC[C@H]1C(=O)N[C@@H]([C@@H](C)CC)C(=O)N(C)CC(=O)N(C)[C@H]2C/C=C\CCN(C2=O)[C@@H](Cc2ccc(C(F)(F)F)cc2)C(=O)N(C)CC(=O)N[C@@H](CCc2ccc(C(F)(F)F)c(Cl)c2)C(=O)N2C[C@H](OCC)C[C@H]2C(=O)NC2(CC(C)(C)C2)C(=O)N(C)[C@@H](CC(F)(F)F)C(=O)N(C)[C@H](C(=O)N(C)C)CC(=O)N1C [PP2975] |  |  | A (a compound having 10 or more and less than 20 is denoted as A) | A (a compound having 10 or more and less than 20 is denoted as A)
15 | CCC[C@H]1C(=O)N[C@@H]([C@@H](C)CC)C(=O)N(C)CC(=O)N(C)[C@H]2C/C=C\CCN(C2=O)[C@@H](Cc2ccc(C(F)(F)F)cc2)C(=O)N(C)CC(=O)N[C@@H](CCc2ccc(C(F)(F)F)c(Cl)c2)C(=O)N2C[C@H](OCC)C[C@H]2C(=O)NC2(CC(C)(C)C2)C(=O)N(C)[C@@H](CC(C)C)C(=O)N(C)[C@H](C(=O)N(C)C)CC(=O)N1C [PP2977] |  |  | A (a compound having 10 or more and less than 20 is denoted as A) | A (a compound having 10 or more and less than 20 is denoted as A)
16 | C#CC[C@H]1C(=O)N[C@@H]([C@@H](C)CC)C(=O)N(C)CC(=O)N(C)[C@H]2C/C=C\CCN(C2=O)[C@@H](Cc2ccc(C)cc2)C(=O)N(C)CC(=O)N[C@@H](CCc2cc(F)c(C(F)(F)F)c(F)c2)C(=O)N2CC3(CC3)C[C@H]2C(=O)NC2(CC(C)(C)C2)C(=O)N(C)[C@@H](C2CCCC2)C(=O)N(C)[C@H](C(=O)N(C)C)CC(=O)N1C [PP2978] |  |  | A (a compound having 10 or more and less than 20 is denoted as A) | A (a compound having 10 or more and less than 20 is denoted as A)
